Reference: patent US20250108038A1 (priority 2023, published 2025)
Where “and” joins values, the source holds several entries; their conditions need not be identical. Equal values may be shown once. Where a name gives a salt, the structure may show the parent alone.

System: Long Evans rats
Assay: Behavioral satiety sequence (BSS)
Assay type: in vivo, Long Evans rat
Description: The Behavioural Satiety Sequence (BSS) is a technique used to evaluate physiological satiety. It is based on the expression of a sequence of behaviors including eating, grooming, locomotor activity, followed by resting, which are typically observed in rodents post-ingestion (Halford et al, 1998, Pharmacology Biochemistry and Behaviour. 61(2): 159-168). The BSS is a widely used model for determining the effects of novel pharmaceuticals on food intake and measures of satiety in rodents (Oliveira et al, 2011, Revista de Nutrição. 24(4) 619-628), and to discriminate the cause of reduced food intake following pharmacological manipulation. For example, treatments that may reduce food intake by non-specific mechanisms, such as immobility, malaise, and taste adulteration, will disrupt this sequence (Halford et al, 1998, Pharmacology Biochemistry and Behaviour. 61(2): 159-168).
Specifically, 12 male Long-Evans rats were food-deprived for 22 h with a 2 h feeding period each day. Rats were trained to consume daily food during the 2 h period over 25 days. The testing phase was initiated once the rats consistently consumed 16-18 g of food per day with ≤10% variance in amount of feed consumed. Feeding took place in designated individual boxes in a quiet room separate from the housing room. Continuous remote monitoring via video camera during feeding was used to assess the BSS. Food consumption was measured by weighing the total available food before and after the 2 h feeding window, correcting for spillage. Lorcaserin (1 mg/kg) was included as a reference control (Higgins et al, 2011, Neuropsychopharmacology. 37(5): 1177-1191). Subjects were tested using a repeated-measures, Latin square design with 2-3 days wash-out between treatment cycles.
On scheduled test days, animals were monitored remotely via video camera during the feeding access period. The occurrence of four mutually exclusive behaviors (eating/drinking, grooming, active, rest) were individually scored. Over the 2 h feeding period, behaviors were assessed every 30 seconds. Scores were compiled into 23 5 min timebins (timebin 24 was removed due to early removal of animals) and the frequency of each behavior within each timebin was calculated to determine a temporal frequency of each measure (Rodgers et al, 2010, Pharmacology Biochemistry and Behaviour. 97: 3-14). Percentage time was plotted for each behavioral sequence in each timebin to compare between treatment groups (Higgins et al, 2011, Neuropsychopharmacology. 37(5): 1177-1191).

[1] = 1 mg/kg, AVG of animals LT-1 to LT-12
[2] = 1 mg/kg, raw score per animal LT-1 to LT-12, hydrochloride
[3] = Lorcaserin 1 mg/kg s.c., AVG of the group
[4] = Lorcaserin 1 mg/kg s.c., raw score per animal, hydrochloride

C[C@H]1CNCCc2ccc(Cl)cc21 [lorcaserin, Lorcaserin hydrochloride, reference compound]
BSS scoring A (active), Time Bin 13 (60-65 TOTAL), AVG [1]: 0.20
BSS scoring A (active), Time Bin 14 (65-70 TOTAL), AVG [1]: 0.20
BSS scoring A (active), Time Bin 15 (70-75 TOTAL), AVG [1]: 0.12
BSS scoring A (active), Time Bin 16 (75-80 TOTAL), AVG [1]: 0.06
BSS scoring A (active), Time Bin 17 (80-85 TOTAL), AVG [1]: 0.07
BSS scoring A (active), Time Bin 18 (85-90 TOTAL), AVG [1]: 0.13
BSS scoring E (eating/drinking), Time Bin 13 (60-65 TOTAL), AVG [1]: 0.66
BSS scoring E (eating/drinking), Time Bin 14 (65-70 TOTAL), AVG [1]: 0.65
BSS scoring E (eating/drinking), Time Bin 15 (70-75 TOTAL), AVG [1]: 0.70
BSS scoring E (eating/drinking), Time Bin 16 (75-80 TOTAL), AVG [1]: 0.83
BSS scoring E (eating/drinking), Time Bin 17 (80-85 TOTAL), AVG [1]: 0.84
BSS scoring E (eating/drinking), Time Bin 18 (85-90 TOTAL), AVG [1]: 0.73
BSS scoring G (grooming), Time Bin 13 (60-65 TOTAL), AVG [1]: 0.07
BSS scoring G (grooming), Time Bin 14 (65-70 TOTAL), AVG [1]: 0.04
BSS scoring G (grooming), Time Bin 15 (70-75 TOTAL), AVG [1]: 0.12
BSS scoring G (grooming), Time Bin 16 (75-80 TOTAL), AVG [1]: 0.08
BSS scoring G (grooming), Time Bin 17 (80-85 TOTAL), AVG [1]: 0.04
BSS scoring G (grooming), Time Bin 18 (85-90 TOTAL), AVG [1]: 0.10
BSS scoring R (resting), Time Bin 13 (60-65 TOTAL), AVG [1]: 0.08
BSS scoring R (resting), Time Bin 14 (65-70 TOTAL), AVG [1]: 0.11
BSS scoring R (resting), Time Bin 15 (70-75 TOTAL), AVG [1]: 0.07
BSS scoring R (resting), Time Bin 16 (75-80 TOTAL), AVG [1]: 0.03
BSS scoring R (resting), Time Bin 17 (80-85 TOTAL), AVG [1]: 0.05
BSS scoring R (resting), Time Bin 18 (85-90 TOTAL), AVG [1]: 0.03
BSS scoring A (active), Time Bin 13 (60-65 TOTAL) [2]: 6 and 5 and 2 (2×) and 1 (2×) and 0 (4×) and 4 and 3
BSS scoring A (active), Time Bin 14 (65-70 TOTAL) [2]: 4 (3×) and 2 (4×) and 0 and 1 (4×)
BSS scoring A (active), Time Bin 15 (70-75 TOTAL) [2]: 0 (5×) and 1 (4×) and 4 (2×) and 2
BSS scoring A (active), Time Bin 16 (75-80 TOTAL) [2]: 0 (9×) and 2 and 1 and 4
BSS scoring A (active), Time Bin 17 (80-85 TOTAL) [2]: 0 (8×) and 2 (4×)
BSS scoring A (active), Time Bin 18 (85-90 TOTAL) [2]: 4 and 0 (5×) and 1 (4×) and 6 and 2
BSS scoring E (eating/drinking), Time Bin 13 (60-65 TOTAL) [2]: 4 and 3 and 6 and 5 (2×) and 7 (2×) and 8 (3×) and 9 (2×)
BSS scoring E (eating/drinking), Time Bin 14 (65-70 TOTAL) [2]: 6 (2×) and 5 and 7 and 10 and 4 (2×) and 8 (3×) and 3 and 9
BSS scoring E (eating/drinking), Time Bin 15 (70-75 TOTAL) [2]: 6 (3×) and 9 (4×) and 2 and 10 and 3 and 8 and 7
BSS scoring E (eating/drinking), Time Bin 16 (75-80 TOTAL) [2]: 10 (7×) and 1 and 9 (2×) and 5 and 6
BSS scoring E (eating/drinking), Time Bin 17 (80-85 TOTAL) [2]: 8 (3×) and 9 (3×) and 10 (3×) and 7 (2×) and 6
BSS scoring E (eating/drinking), Time Bin 18 (85-90 TOTAL) [2]: 4 and 9 (2×) and 6 (2×) and 10 (3×) and 7 (3×) and 3
BSS scoring G (grooming), Time Bin 13 (60-65 TOTAL) [2]: 0 (8×) and 2 (2×) and 3 and 1
BSS scoring G (grooming), Time Bin 14 (65-70 TOTAL) [2]: 0 (8×) and 1 (3×) and 2
BSS scoring G (grooming), Time Bin 15 (70-75 TOTAL) [2]: 0 (6×) and 3 and 1 (4×) and 7
BSS scoring G (grooming), Time Bin 16 (75-80 TOTAL) [2]: 0 (10×) and 6 and 3
BSS scoring G (grooming), Time Bin 17 (80-85 TOTAL) [2]: 0 (8×) and 1 (3×) and 2
BSS scoring G (grooming), Time Bin 18 (85-90 TOTAL) [2]: 2 (3×) and 1 (3×) and 0 (5×) and 3
BSS scoring R (resting), Time Bin 13 (60-65 TOTAL) [2]: 0 (7×) and 2 and 4 and 1 (3×)
BSS scoring R (resting), Time Bin 14 (65-70 TOTAL) [2]: 0 (7×) and 1 (2×) and 4 (2×) and 3
BSS scoring R (resting), Time Bin 15 (70-75 TOTAL) [2]: 4 and 1 (2×) and 0 (8×) and 2
BSS scoring R (resting), Time Bin 16 (75-80 TOTAL) [2]: 0 (9×) and 1 (2×) and 2
BSS scoring R (resting), Time Bin 17 (80-85 TOTAL) [2]: 2 (2×) and 1 (2×) and 0 (8×)
BSS scoring R (resting), Time Bin 18 (85-90 TOTAL) [2]: 0 (9×) and 2 and 1 (2×)
effect on the behavioral satiety sequence (BSS) (Compound I-19 0.1-3 mg/kg IP, lorcaserin 1 mg/kg SC): preserved the BSS at the 1 mg/kg dose
BSS scoring A (active), Time Bin 7 (30-35 TOTAL), AVG [3]: 0.18
BSS scoring A (active), Time Bin 8 (35-40 TOTAL), AVG [3]: 0.21
BSS scoring A (active), Time Bin 9 (40-45 TOTAL), AVG [3]: 0.10
BSS scoring A (active), Time Bin 10 (45-50 TOTAL), AVG [3]: 0.16
BSS scoring A (active), Time Bin 11 (50-55 TOTAL), AVG [3]: 0.09
BSS scoring A (active), Time Bin 12 (55-60 TOTAL), AVG [3]: 0.10
BSS scoring E (eating/drinking), Time Bin 7 (30-35 TOTAL), AVG [3]: 0.68
BSS scoring E (eating/drinking), Time Bin 8 (35-40 TOTAL), AVG [3]: 0.68
BSS scoring E (eating/drinking), Time Bin 9 (40-45 TOTAL), AVG [3]: 0.74
BSS scoring E (eating/drinking), Time Bin 10 (45-50 TOTAL), AVG [3]: 0.78
BSS scoring E (eating/drinking), Time Bin 11 (50-55 TOTAL), AVG [3]: 0.75
BSS scoring E (eating/drinking), Time Bin 12 (55-60 TOTAL), AVG [3]: 0.83
BSS scoring G (grooming), Time Bin 7 (30-35 TOTAL), AVG [3]: 0.12
BSS scoring G (grooming), Time Bin 8 (35-40 TOTAL), AVG [3]: 0.09
BSS scoring G (grooming), Time Bin 9 (40-45 TOTAL), AVG [3]: 0.12
BSS scoring G (grooming), Time Bin 10 (45-50 TOTAL), AVG [3]: 0.01
BSS scoring G (grooming), Time Bin 11 (50-55 TOTAL), AVG [3]: 0.04
BSS scoring G (grooming), Time Bin 12 (55-60 TOTAL), AVG [3]: 0.05
BSS scoring R (resting), Time Bin 7 (30-35 TOTAL), AVG [3]: 0.03
BSS scoring R (resting), Time Bin 8 (35-40 TOTAL), AVG [3]: 0.03
BSS scoring R (resting), Time Bin 9 (40-45 TOTAL), AVG [3]: 0.04
BSS scoring R (resting), Time Bin 10 (45-50 TOTAL), AVG [3]: 0.06
BSS scoring R (resting), Time Bin 11 (50-55 TOTAL), AVG [3]: 0.12
BSS scoring R (resting), Time Bin 12 (55-60 TOTAL), AVG [3]: 0.02
BSS scoring A (active), Time Bin 7 (30-35 TOTAL) [4]: 0 (4×) and 3 and 1 (3×) and 4 and 2 (2×) and 7
BSS scoring A (active), Time Bin 8 (35-40 TOTAL) [4]: 4 (2×) and 2 (2×) and 1 (4×) and 3 (3×) and 0
BSS scoring A (active), Time Bin 9 (40-45 TOTAL) [4]: 0 (7×) and 2 and 1 (3×) and 7
BSS scoring A (active), Time Bin 10 (45-50 TOTAL) [4]: 2 (2×) and 4 and 0 (7×) and 10 and 1
BSS scoring A (active), Time Bin 11 (50-55 TOTAL) [4]: 0 (6×) and 2 (2×) and 1 (3×) and 4
BSS scoring A (active), Time Bin 12 (55-60 TOTAL) [4]: 2 (2×) and 0 (6×) and 1 (3×) and 5
BSS scoring E (eating/drinking), Time Bin 7 (30-35 TOTAL) [4]: 6 (4×) and 7 (2×) and 8 (2×) and 5 and 3 and 10 (2×)
BSS scoring E (eating/drinking), Time Bin 8 (35-40 TOTAL) [4]: 5 (3×) and 7 and 9 and 8 (3×) and 4 and 6 (2×) and 10
BSS scoring E (eating/drinking), Time Bin 9 (40-45 TOTAL) [4]: 10 (2×) and 7 (2×) and 9 (2×) and 8 (3×) and 2 and 6 and 5
BSS scoring E (eating/drinking), Time Bin 10 (45-50 TOTAL) [4]: 8 (2×) and 6 (2×) and 10 (4×) and 0 and 9 (2×) and 7
BSS scoring E (eating/drinking), Time Bin 11 (50-55 TOTAL) [4]: 10 (3×) and 7 (3×) and 1 and 8 (4×) and 6
BSS scoring E (eating/drinking), Time Bin 12 (55-60 TOTAL) [4]: 6 and 7 (2×) and 9 (5×) and 10 (3×) and 5
BSS scoring G (grooming), Time Bin 7 (30-35 TOTAL) [4]: 3 and 1 (3×) and 2 (4×) and 0 (4×)
BSS scoring G (grooming), Time Bin 8 (35-40 TOTAL) [4]: 1 (7×) and 0 (3×) and 2 (2×)
BSS scoring G (grooming), Time Bin 9 (40-45 TOTAL) [4]: 0 (4×) and 1 (5×) and 2 and 3 and 4
BSS scoring G (grooming), Time Bin 10 (45-50 TOTAL) [4]: 0 (11×) and 1
BSS scoring G (grooming), Time Bin 11 (50-55 TOTAL) [4]: 0 (7×) and 1 (5×)
BSS scoring G (grooming), Time Bin 12 (55-60 TOTAL) [4]: 2 (2×) and 0 (8×) and 1 (2×)
BSS scoring R (resting), Time Bin 7 (30-35 TOTAL) [4]: 1 (3×) and 0 (9×)
BSS scoring R (resting), Time Bin 8 (35-40 TOTAL) [4]: 0 (9×) and 1 (3×)
BSS scoring R (resting), Time Bin 9 (40-45 TOTAL) [4]: 0 (9×) and 1 (2×) and 3
BSS scoring R (resting), Time Bin 10 (45-50 TOTAL) [4]: 0 (8×) and 4 and 1 (3×)
BSS scoring R (resting), Time Bin 11 (50-55 TOTAL) [4]: 0 (7×) and 2 (3×) and 7 and 1
